In patent US20250042848A1, “DEUTERATED FUNCTIONALIZED DERIVATIVES OF alpha-ALANINE, IN [sequence] FOR THE TREATMENT OF NEUROLOGICAL DISEASES” (UNIWERSYTET JAGIELLONSKI, priority 2021, published 2025):

How the values were obtained:
[1] = system: maximal electroshock seizures in mice; experiment: Maximal electroshock seizure test (MES); format: in vivo
Description: (§1) Initial screening was performed on groups of 4 mice. The mean effective dose (ED50) in a given test and the neurotoxic dose in the rotarod test (TD50) were estimated on the basis of the results obtained on 3-4 groups of animals consisting of 6 animals.
In the maximal electroshock seizure test (MES), the seizures were induced by 500 V, 25 mA electrical stimulus of 0.2 s in duration. The electrical pulse was generated using an electric shock generator (Rodent shocker, Type 221, Hugo Sachs Elektronik, Germany) and delivered to the animal using electrodes placed on the auricles. The study was conducted 30 minutes/2 hours after intraperitoneal administration of the compounds at various doses. During the experiment, the number of animals that experienced a seizure episode in the form of hindlimb tonic extension was counted (Łuszczki, J.J. et al. Fundam. Clin. Pharmacol. 2008, 22, 69-74).
(§2) The ED50 (effective dose) and TD50 (toxic dose) values along with the corresponding 95% confidence limits were calculated based on the Litchfield and Wilcoxon method (Litchfield, J.T.; Wilcoxon, F. J. Pharmacol. Exp. Ther. 1949, 96, 99-113). To perform a statistical evaluation of the results in the scPTZ test, one-way ANOVA variance analysis followed by Dunnett's post hoc test were used. The values were considered statistically significant if p<0.05.

[2] = system: oxaliplatin-induced mechanical allodynia in mice; experiment: Oxaliplatin (OXPT)-induced peripheral neuropathy model, von Frey test; format: in vivo
Description: The reaction was observed before administration and 3 hours (early phase) and 7 days (late phase) after administration of OXPT.
All tests/models were performed based on procedures described in the specialist literature: formalin test (Beirith et al. Eur. J. Pharmacol. 1998, 345, 233-245), capsaicin-induced pain model (Mogilski et al. Pharmacol. Biochem. Behav. 2015, 133, 99-110), oxaliplatin-induced neuropathic pain model-von Frey's test (Sałat et al. Pharmacol. Biochem. Behav. 2014, 122, 173-181), streptozotocin-induced diabetic neuropathic pain model-von Frey's test (Sałat et al. Neuropharmacology 2017, 125, 181-188; Tanabe et al. J. Pharmacol. Sci. 2008, 107, 213-220). The test group consisted of 8-10 animals.

[3] = system: psychomotor seizures induced by a 44 mA, 6 Hz stimulus in mice; experiment: Psychomotor seizure test 6 Hz (44 mA); format: in vivo; conditions: in mg/kg
Description: as §1
In the psychomotor seizure test (6 Hz test), seizures were induced by a 32 mA and/or 44 mA electrical stimulus of a frequency of 6 pulses per second. An electrical pulse was generated using an electric shock generator (ECT Unit 57800; Ugo Basile, Gemonio, Italy) and delivered to the animal using corneal electrodes. Before starting the test, the eye surface was gently moistened with a solution of local anesthetic (1% lidocaine solution). The study was conducted 30 minutes/2 hours after intraperitoneal administration of the compounds at various doses. An electrical stimulus was delivered continuously for a period of 3 seconds, followed by observation of the animal for a period of 10 seconds. During the experiment, the number of animals with an episode of psychomotor convulsions was counted: motor inhibition, staggering, maintaining a sitting posture, forelimb clonus, twitching of the vibrissae and Straub-tail were observed (Leclercq, K.; Kaminski, R.M. Epilepsia 2015, 56, 310-318).
as §2

[4] = system: spontaneous locomotor activity of mice; conditions: mouse, in vivo
Description: For this purpose, the number of light beam crossings in the cages was counted in each group of animals during a 30-minute observation.
The experiments were carried out on male albino mice (CD-1) weighing 25-30 g, provided by an accredited animal facility. All procedures were performed in accordance with the applicable Polish and European guidelines on the ethics of research on animals, after obtaining the appropriate approval. The substance was administered intraperitoneally after suspension in a 1% Tween 80 solution, as single injections of 0.1 mL/10 g b.w., 30 minutes before a given test.
The assessment of the influence of the tested compound on the spontaneous locomotor activity of animals (assessment of the sedative or activating effect) was carried out in accordance with the methodology described in the scientific literature (Mogilski et al. Inflamm. Res. 2017, 66, 79-95), using a cage with dimensions 40×40×31 cm (Activity Cage; Ugo Basile, Gemonio VA, Italy). The compound was administered 30 minutes before the experiment. The number of light beam crossings was counted in each group during the next 30 min at 10-minute intervals. The study group consisted of 10 animals.

[5] = system: mouse liver microsomes (MLMs); experiment: In vitro metabolic stability, mouse liver microsomes; format: in vitro ADME; conditions: 120-minute incubation with MLMs, NADPH
Description: Metabolic stability assessment was performed using mouse (MLMs) and human (HLMs) liver microsomes purchased from Sigma-Aldrich (St. Louis, MO, USA). The detailed methodology is described in the literature (Kamiński et al. J. Med. Chem. 2015, 58, 5274-5286). The reaction mixture was prepared by mixing […] of the tested compound with mouse or human microsomes (1 mg/mL) in 10 mM TRIS-HCl buffer. The reaction mixture was pre-incubated for 5 min at 37° C. After the initial incubation, 50 μL of the NADPH Regeneration System (Promega, Madison, WI, USA) was added to initiate the reaction. The reaction mixture was then incubated for 120 min at 37° C. 200 μL of cold extra pure methanol was added to complete the reaction. The mixture was then centrifuged at 14,000 g for 15 min and the supernatants were analyzed using a Waters ACQUITY™ TQD LC/MS system with a TQ detector (Waters, Milford, USA). Each experiment was performed in triplicate.

[6] = 0.5 h after i.p. administration
[7] = 2.0 h after i.p. administration
[8] = 30 mg/kg, seven days after OXPT (late phase)
[9] = 30 mg/kg, three hours after OXPT (early phase)
[10] = 60 mg/kg, seven days after OXPT (late phase)
[11] = 60 mg/kg, three hours after OXPT (early phase)
[12] = 90 mg/kg, seven days after OXPT (late phase)
[13] = 90 mg/kg, three hours after OXPT (early phase)

SMILES: [2H]C1([2H])C(=O)N([C@H](C)C(=O)NCc2ccccc2)C(=O)C1([2H])[2H] [d4-(R)-1, (R)-N-benzyl-2-(2,5-dioxopyrrolidin-1-yl-3,3,4,4-d4) propanamide]
- ED50 MES [1, 6]: 43.7 mg/kg
- ED50 MES [1, 7]: 50.1 mg/kg
- pain threshold (von Frey) [2, 8]: 6.38 ± 0.50 g
- pain threshold, % of baseline [2, 8]: 123.9%
- pain threshold (von Frey) [2, 9]: 5.73 ± 0.40 g
- pain threshold, % of baseline [2, 9]: 111.3%
- pain threshold (von Frey) [2, 10]: 7.34 ± 0.42 g
- pain threshold, % of baseline [2, 10]: 119.2%
- pain threshold (von Frey) [2, 11]: 5.33 ± 0.427 g
- pain threshold, % of baseline [2, 11]: 86.5%
- pain threshold (von Frey) [2, 12]: 7.04 ± 0.31 g
- pain threshold, % of baseline [2, 12]: 110.5%
- pain threshold (von Frey) [2, 13]: 7.23 ± 0.42 g
- pain threshold, % of baseline [2, 13]: 113.5%
- ED50 6 Hz (44 mA) [3, 6]: 79.2
- ED50 6 Hz (44 mA) [3, 7]: 125.3
- locomotor activity (light beam crossings in 30 min), % of the initial value (vehicle) [4]: 46.90%
- metabolic stability (metabolites in UPLC chromatograms) [5]: no metabolites appeared
